Key:
M1 cells [1] = test: Serum dose inhibition of M1 colony differentiation by normal mouse serum (mLBP); format: cell-based, murine; conditions: up to 200 U/ml hLIF
Procedure: For serum dose inhibition assays, the specific activity of each LIF preparation was determined by titration in cultures of M1 cells. Aliquots of normal mouse serum (containing approximately 5 μg/ml mLBP) were then added in serial 2-fold dilutions to cultures of M1 cells that also contained a just maximal concentration (200 U) of mLIF (SEQ. ID. NO:1), hLIF (SEQ. ID. NO:2) or m-hLIF hybrid. Assays including mLIF and hLIF gave identical results when either crude mouse serum or a highly purified preparation of mLBP was used. Hybrids were assessed for mLIF or hLIF character from the dilution of serum required to block 50% of their M1 cell differentiation-inducing activity.
A 1:4 to 1:8 dilution of normal mouse serum (equivalent to ~0.5-1 μg/ml mLBP) is required to block 50% of the M1 differentiation-inducingactivity of up to 200 U/ml mLIF, whereas, due to the higher affinity of hLIF for mLBP, a 1:8192 dilution of serum (~0.6 ng/ml mLBP) is sufficient to block 50% of the M1 activity of up to 200 U/ml hLIF. This ability of mLBP to inhibit the differentiation-inducing activity of LIF in a species-specific manner was utilized as a second assay that distinguished hLIF from mLIF. […]

[2] = system: mLBP (soluble mLIF-R α-chain); test: Competitive inhibition of [125I]hLIF binding to mLBP (hLIF-like activity score); set-up: species or system mouse; conditions: logarithmic scale, hLIF = 100%, mLIF = 0%; mean±SEM
Excerpt: Reference is made herein to the subject molecule having at least about 35% hLIF-like activity. More preferably, the molecule has at least about 50% hLIF-like activity and even more preferably at least about 70% hLIF-like activity. hLIF-like activity is defined in terms of the ability for a molecule to compete for ^125 I-hLIF binding to mLBP based on the equation: [formula]
wherein xm is the dose of unlabelled mLIF; xh is the dose of unlabelled hLIF; xc is the dose of the molecule (e.g. protein, polypeptide or peptide) required to give 50% inhibition of ^125 I-hLIF binding to mLBP.
Normal mouse serum was used as a source of mLBP. […] Bound and free radioactivity were separated by vacuum filtration of the supernatant and the ConA-Sepharose pellet was washed once with 200 μl cold PBS. Assay plates containing the cell pellet were then exposed to a phosphor screen (Molecular Dynamics, Calif., U.S.A.) for 16-24 hours and the results quantified using Imagequant version 3.0 software (Molecular Dynamics). […]

M1 cells [3] = conditions: background statement; cited from earlier work
[4] = system: murine M1 leukaemic colonies; test: M1 differentiation assay (specific biological activity); format: cell-based
Procedure: The functional activity of the m-hLIF hybrids was assayed by their ability to induce differentiation in murine M1 leukaemic colonies. M1 differentiation assays were performed as described (Metcalf et al, 1988). The specific activity of each hybrid was expressed as the units of M1 differentiation-inducing activity per milligram of protein.
The protein concentration of each purified sample was determined by amino acid analysis, and the amount of biologically active protein in each sample was estimated by its ability to induce differentiation in mouse M1 myeloid leukaemic colonies. An internal standard of mLIF (10^4 U/ml) was used to normalise all M1 cell bioassays (50 U/ml of LIF is defined as the concentration of LIF required for half maximal stimulation).

[5] = system: mLBP (soluble mLIF-R α-chain); test: Competitive inhibition of [125I]mLIF binding to mLBP; set-up: species or system mouse; conditions: in words
Procedure: Normal mouse serum was used as a source of mLBP. For competitive binding experiments, 50 μl aliquots of unlabelled LIF or a mouse-human LIF hybrid were added to 96-well filtration assay plates containing a 0.65 micron Durapore membrane (Millipore, Mass., U.S.A.) with 20 μl aliquots of a 1/10 to 1/20 dilution of normal mouse serum, 10 μl radiolabelled ligand and 25 μl Concanavalin-A Sepharose 4B (ConA-Sepharose, Pharmacia, Uppsala) (diluted 1:4 in 100 mM sodium acetate pH6.0 containing 1 mM MnCl2, 1 mM MgCl2 and 1 mM CaCl2; this and all subsequent buffers contained 0.02% w/v sodium azide and 0.02% v/v Tween 20) and incubated at room temperature overnight with agitation. Bound and free radioactivity were separated by vacuum filtration of the supernatant and the ConA-Sepharose pellet was washed once with 200 μl cold PBS. Assay plates containing the cell pellet were then exposed to a phosphor screen (Molecular Dynamics, Calif., U.S.A.) for 16-24 hours and the results quantified using Imagequant version 3.0 software (Molecular Dynamics).
The structural integrity of all m-hLIF chimeras was also verified by evaluating their ability to bind correctly to the mLIF-R α-chain.

hLIF: human leukaemia inhibitory factor, H1-180 (SEQ. ID. NO:2), recombinant from E. coli
mLBP concentration equivalent to serum dilution blocking 50% of M1 activity (M1 cells [1]): ~ 0.6 ng/ml
hLIF-like activity (percentage human score) calculated from ID50 for inhibition of [125I]hLIF binding to mLBP [2]: 100%
mLBP more potent inhibitor of hLIF than mLIF (inhibition of biological responses to LIF) (M1 cells [3]): approximately 1000 fold
biological activity in a mouse cell bioassay, in words [4]: nearly equal biological activities
specific biological activity (units of LIF activity per milligram of protein) ([4]; mouse M1 cells, 50 U/ml = half maximal stimulation): 1-3×10^8 U/mg
ability to compete for [125I]mLIF binding to mLBP [5]: approximately equal ability

— patent publication US6184370A, “Receptor-binding determinant from leukaemia inhibitory factor” (Amrad Corporation Limited, priority 1994, dated 2001)
